Experimental data from ChEMBL document CHEMBL1155625, “Nostocyclyne A, a novel antimicrobial cyclophane from the cyanobacterium Nostoc sp” (2000).

Tests used:
Format in all cases: functional
Escherichia coli = assay: Antimicrobial activity against Escherichia coli measured per disk
Chlorophyta = assay: Inhibition of photosynthesis in green alga at 100 ug/mL
Staphylococcus aureus = assay: Antimicrobial activity against Staphylococcus aureus measured per disk

CCCC1CCCCCCCCCCCC#Cc2cc(O)c1c(O)c2 (stereo not drawn) [NOSTOCYCLYNE A]
MIC (Escherichia coli): 10 µg
inhibition at 100 µg/mL (Chlorophyta): 5%
MIC (Staphylococcus aureus): 12.5 µg
